Laboratory results taken from publication PMC12298648, “An Evaluation of the Cytotoxicity and Safety Profile of Usnic Acid for a Broad Panel of Human Cancers and Normal Cells with Respect to Its Enantiospecificity” (Molecules, 2025).
Converted amounts (≈) assume the structure as drawn.

What was measured:
C8D1A = test: MTT viability assay, normal astrocytes C8D1A; type: cell-based, murine; conditions: C8D1A, 24 h
From the text: (§1) Cell lines of different origins were used in the study and grouped as follows: prostate panel (human prostate carcinomas: DU145, derived from metastatic site: brain; grade IV PC3, derived from metastatic site: bone; LNCaP, derived from the metastatic site: lymph node; prostate epithelial, PNT2), colon panel (colorectal adenocarcinomas: HT29, originating from a primary tumor; Duke’s type C DLD-1, with the potential to lymph node metastasis; highly metastatic HCT116; colon epithelial cells CCD 841 CoN), thyroid panel (follicular thyroid carcinoma FTC133, anaplastic thyroid carcinoma 8505C, papillary thyroid carcinoma TPC-1, normal thyroid follicular epithelial Nthy-ori 3–1), breast panel (ER-positive breast adenocarcinoma MCF7, ER-negative breast adenocarcinoma MDA-MB-231, breast epithelial MCF10A), brain panel (neuroblastoma SH-SY5Y, glioblastoma U-87 MG, murine astrocytes C8D1A). All cell lines were purchased from Merck (Darmstadt, Germany).
(§2) Cells were grown under standard conditions (37 °C, 5% CO2) and culture media (DMEM/F12 for PNT2, PC3, FTC133, 8505 C, MDA-MB-231, TPC-1; DMEM Low Glucose for DU145; DMEM High Glucose for HCT116, DLD-1, SH-SY5Y, U87MG, C8D1A; MEM with NEAA for MCF7; MEM for CCD 841 CoN; McCoy’s for HT29; RPMI1640 with sodium pyruvate for LNCaP; DMEM/F12 with 20 ng/mL epidermal growth factor (EGF), 10 μg/mL insulin, 0.5 μg/mL hydrocortisone, 100 ng/mL cholera toxin) for MCF10A), supplemented with 10% fetal bovine serum (FBS) or 5% donor horse serum for MCF10A, and 1% antibiotics solution (10,000 U penicillin and 10 mg streptomycin/mL). The tested substances were prepared as 10 mg/mL stock solutions in DMSO and further diluted in the culture media to the working concentrations. Cells were treated with UA enantiomers at the concentration range of 0–50 µg/mL. The influence of DMSO on cell viability was also examined, with the final concentration […], and no toxic effect was noted.
(§3) The cells were seeded onto 96-well plates at a density of 1.5 × 10^4 cells/well. After 24 h UA enantiomers were added. Cell viability was determined after 24, 48, and 72 h by the MTT assay, as described previously. Doxorubicin was used as a reference cytostatic drug. All analyses were performed in triplicate; cell viability was expressed as % of control, untreated cells (mean ± SD), and IC50 values (concentration at which cell viability is inhibited by 50%), if possible.

DLD-1 = test: MTT viability assay, DLD-1 colon cancer cells; type: cell-based, human; conditions: for Cell viability: DLD-1, 24 h; for IC50: Homo sapiens
From the text: as §1, §2, §3

MCF7 = test: MTT viability assay, MCF7 breast cancer cells; type: cell-based, human; conditions: for IC50: Homo sapiens; for Cell viability: MCF7, 24 h
From the text: as §1, §2, §3
(§4) The selectivity index (SI) was calculated, if possible, by dividing the IC50 value obtained for non-cancerous cells line by the IC50 values obtained for appropriate cancer cell line, as described previously. […] The values above 3 indicate good selectivity.

HT29 = test: MTT viability assay, HT29 colon cancer cells; type: cell-based, human; conditions: for Cell viability: HT29, 24 h; for IC50: Homo sapiens, HT-29
From the text: as §1, §2, §3

Nthy ori 3-1 = test: MTT viability assay, normal thyroid follicular epithelial cells; type: cell-based, human; conditions: for IC50: Homo sapiens; for Cell viability: Nthy ori 3-1, 24 h
From the text: as §1, §2, §3

8505C = test: MTT viability assay, 8505C anaplastic thyroid carcinoma cells; type: cell-based, human; conditions: for Cell viability: 24 h; for IC50: Homo sapiens
From the text: as §1, §2, §3

PC3 = test: MTT viability assay, PC3 prostate cancer cells; type: cell-based, human; conditions: for IC50: Homo sapiens, PC-3; for Cell viability: PC3, 24 h
From the text: as §1, §2, §3, §4

U87MG = test: MTT viability assay, glioblastoma U87MG cells; type: cell-based, human; conditions: 24 h
From the text: as §1, §2, §3

PNT2 = test: MTT viability assay, normal prostate epithelial cells; type: cell-based, human; conditions: for IC50: Homo sapiens; for Cell viability: PNT2, 24 h
From the text: as §1, §2, §3

Structure (SMILES): CC(=O)C1=C(O)C=C2Oc3c(C(C)=O)c(O)c(C)c(O)c3[C@@]2(C)C1=O [UA(+), (+)-usnic acid]
- Cell viability (C8D1A; 2.5 µg/mL): 110.33 % of control
- Cell viability (C8D1A; 5 µg/mL): 110.17 % of control
- Cell viability (C8D1A; 10 µg/mL): 96.58 % of control
- Cell viability (C8D1A; 20 µg/mL): 91.17 % of control
- Cell viability (C8D1A; 30 µg/mL): 88.67 % of control
- Cell viability (C8D1A; 40 µg/mL): 86.17 % of control
- Cell viability (C8D1A; 50 µg/mL): 106.42 % of control
- Cell viability (DLD-1; 2.5 µg/mL): 96.51 % of control
- Cell viability (DLD-1; 5 µg/mL): 89.29 % of control
- Cell viability (DLD-1; 10 µg/mL): 75.63 % of control
- Cell viability (DLD-1; 20 µg/mL): 82.11 % of control
- Cell viability (DLD-1; 30 µg/mL): 71.08 % of control
- Cell viability (DLD-1; 40 µg/mL): 68.28 % of control
- Cell viability (DLD-1; 50 µg/mL): 68.46 % of control
- IC50 (DLD-1; DLD-1, 48 h): 26.1 µg/mL (≈ 75.8 µM)
- IC50 (DLD-1; DLD-1, 72 h): 19.6 µg/mL (≈ 56.9 µM)
- IC50 (MCF7; MCF7, 48 h): > 50 µg/mL
- IC50 (MCF7; MCF7, 72 h): > 50 µg/mL
- Cell viability (MCF7; 2.5 µg/mL): 106.54 % of control
- Cell viability (MCF7; 5 µg/mL): 108.77 % of control
- Cell viability (MCF7; 10 µg/mL): 108.15 % of control
- Cell viability (MCF7; 20 µg/mL): 103.95 % of control
- Cell viability (MCF7; 30 µg/mL): 89.38 % of control
- Cell viability (MCF7; 40 µg/mL): 87.41 % of control
- Cell viability (MCF7; 50 µg/mL): 87.78 % of control
- selectivity index (SI) (MCF7; MCF7 cells, 72 h): ~3
- Cell viability (HT29; 2.5 µg/mL): 103.23 % of control
- Cell viability (HT29; 5 µg/mL): 91.51 % of control
- Cell viability (HT29; 10 µg/mL): 88.42 % of control
- Cell viability (HT29; 20 µg/mL): 84.70 % of control
- Cell viability (HT29; 30 µg/mL): 77.54 % of control
- Cell viability (HT29; 40 µg/mL): 74.11 % of control
- Cell viability (HT29; 50 µg/mL): 72.56 % of control
- IC50 (HT29; HT29, 48 h): > 50 µg/mL
- IC50 (HT29; HT29, 72 h): > 50 µg/mL
- IC50 (Nthy ori 3-1; Nthy-ori 3-1, 48 h): > 50 µg/mL
- IC50 (Nthy ori 3-1; Nthy-ori 3-1, 72 h): 33.2 µg/mL (≈ 96.4 µM)
- Cell viability (Nthy ori 3-1; 2.5 µg/mL): 97.57 % of control
- Cell viability (Nthy ori 3-1; 5 µg/mL): 100.56 % of control
- Cell viability (Nthy ori 3-1; 10 µg/mL): 95.69 % of control
- Cell viability (Nthy ori 3-1; 20 µg/mL): 93.96 % of control
- Cell viability (Nthy ori 3-1; 30 µg/mL): 94.51 % of control
- Cell viability (Nthy ori 3-1; 40 µg/mL): 97.29 % of control
- Cell viability (Nthy ori 3-1; 50 µg/mL): 97.71 % of control
- Cell viability (8505C; 2.5 µg/mL): 102.52 % of control
- Cell viability (8505C; 5 µg/mL): 103.05 % of control
- Cell viability (8505C; 10 µg/mL): 98.80 % of control
- Cell viability (8505C; 20 µg/mL): 102.26 % of control
- Cell viability (8505C; 30 µg/mL): 99.47 % of control
- Cell viability (8505C; 40 µg/mL): 102.26 % of control
- Cell viability (8505C; 50 µg/mL): 108.63 % of control
- IC50 (8505C; 48 h): > 50 µg/mL
- IC50 (8505C; 72 h): > 50 µg/mL
- IC50 (PC3; PC3, 48 h): 39.6 µg/mL (≈ 115 µM)
- IC50 (PC3; PC3, 72 h): 19.1 µg/mL (≈ 55.5 µM)
- selectivity index (SI) (PC3; IC50 PNT2 / IC50 PC3, 48 h): 0.94
- selectivity index (SI) (PC3; IC50 PNT2 / IC50 PC3, 72 h): 1.07
- Cell viability (PC3; 2.5 µg/mL): 100.80 % of control
- Cell viability (PC3; 5 µg/mL): 99.30 % of control
- Cell viability (PC3; 10 µg/mL): 104.63 % of control
- Cell viability (PC3; 20 µg/mL): 96.62 % of control
- Cell viability (PC3; 30 µg/mL): 83.08 % of control
- Cell viability (PC3; 40 µg/mL): 70.10 % of control
- Cell viability (PC3; 50 µg/mL): 64.83 % of control
- Cell viability (U87MG; 5 µg/mL): 99.21 % of control
- Cell viability (U87MG; 10 µg/mL): 98.61 % of control
- Cell viability (U87MG; 30 µg/mL): 101.76 % of control
- Cell viability (U87MG; 40 µg/mL): 92.73 % of control
- Cell viability (U87MG; 50 µg/mL): 95.00 % of control
- IC50 (PNT2; PNT2, 48 h): 37.4 µg/mL (≈ 109 µM)
- IC50 (PNT2; PNT2, 72 h): 20.4 µg/mL (≈ 59.2 µM)
- Cell viability (PNT2; 5 µg/mL): 101.11 % of control
- Cell viability (PNT2; 10 µg/mL): 104.00 % of control
- Cell viability (PNT2; 20 µg/mL): 96.96 % of control
- Cell viability (PNT2; 30 µg/mL): 68.67 % of control
- Cell viability (PNT2; 40 µg/mL): 59.70 % of control
- Cell viability (PNT2; 50 µg/mL): 56.52 % of control
